Measurements: patent US9192678B2, “Modified hyaluronic acid polymer compositions and related methods” (priority 2009, dated 2015)

Tested on: medial femoral condyle cartilage of goat stifle joint
Test: Modified Mankin score of femoral cartilage after intra-articular injection in goats (Example 34)
Format: in vivo
Protocol: A lightly crosslinked hydrogel prepared by reaction of vinyl-sulfone-modified hyaluronic acid with PEG-dithiol (HA-VS-PEG-(SH)2), containing the corticosteroid, triamcinolone acetonide, was injected into the intraarticular space of the stifle joint of female goats. Morphological, synovial fluid and histological examinations were conducted to evaluate local and systemic effects of such injections. Details of the study are provided below.
All test materials were stored at room temperature prior to use. For each Test or Control Material, a 1.5 ml dosage was prepared for each individual intra-articular injection.
A standard technique was used to inject each stifle joint, A 2-inch by 21 gauge sized sterile needle was introduced into the intra-articular space via an anteromedial approach. The lateral intercondylar notch wall of the medial femoral condyle was felt and the needle backed slightly off. 1.5 ml of the appropriate Test Material was injected into the right joint. The injection needle was removed and pressure was maintained on the injection site. The injected stifle joint was then cycled 20-times through a full range of motion. Immediately following this, the left stifle joint was cleansed with chlorohexidine scrub alternating with 70% isopropyl alcohol three times and painted with iodine solution and 1.5 ml of the Control Material was injected into the left stifle joint in a similar manner as described above for the right stifle. The injection needle was removed and pressure maintained on the injection site. The injected stifle joint was then cycled 20-times through a full range of motion.
Necropsy: Animals were humanely sacrificed at either 14 days or 28 days day post initial injection with an intravenous injection consisting of Diazepam 0.22 mg/kg and Ketamine 10 mg/kg for induction of general anesthesia. Following this, the anesthetized animals were given an IV overdose of concentrated potassium chloride (KCl) until the cardiac arrest had been verified.
Immediately after dissection and following gross joint surface evaluation a sagital section of each joint was cut through the medial femoral condyle (MFC). These sections were placed individually in 10% neutral buffered formalin. The fixed tissue was shipped by overnight carrier to Premier Laboratories for processing. The right and left MFC sections were processed using standard histological techniques and stained with hematoxylin and eosin (H&E) and Safranin-O (SAF-O) with a fast green counter stain. The slides from the MFC sections were evaluated by the Mankin Scoring System for osteoarthritis as described in Table 12.

[1] = 28 day group, animal died prematurely (3837: 24 days, 3588: 19 days on study), not included in averages

SMILES: CC1(C)O[C@@H]2C[C@H]3[C@@H]4CCC5=CC(=O)C=C[C@]5(C)[C@@]4(F)[C@@H](O)C[C@]3(C)[C@]2(C(=O)CO)O1 [Triamcinolone Acetonide 2 mg/ml, triamcinolone acetonide]
- Cells (modified Mankin), MEAN (female, goat, in vivo, 14 days): 0.7
- Safranin-O Stain (modified Mankin), MEAN (female, goat, in vivo, 14 days): 3.0
- Structure (modified Mankin), MEAN (female, goat, in vivo, 14 days): 2.7
- Tide Mark Integrity (modified Mankin) (female, goat, in vivo, 14 days): 0.0
- Tide Mark Integrity (modified Mankin), MEAN (female, goat, in vivo, 14 days): 0.0
- Total Mankin Score, MEAN (female, goat, in vivo, 14 days): 6.3
- Cells (modified Mankin), MEAN (female, goat, in vivo, 28 days): 2.3
- Safranin-O Stain (modified Mankin), MEAN (female, goat, in vivo, 28 days): 3.3
- Structure (modified Mankin), MEAN (female, goat, in vivo, 28 days): 2.7
- Tide Mark Integrity (modified Mankin) (female, goat, in vivo, 28 days): 0.0
- Tide Mark Integrity (modified Mankin), MEAN (female, goat, in vivo, 28 days): 0.0
- Total Mankin Score, MEAN (female, goat, in vivo, 28 days): 8.3

SMILES: CC1(C)O[C@@H]2C[C@H]3[C@@H]4CCC5=CC(=O)C=C[C@]5(C)[C@@]4(F)[C@@H](O)C[C@]3(C)[C@]2(C(=O)CO)O1 [Triamcinolone Acetonide 8 mg/ml, triamcinolone acetonide]
- Cells (modified Mankin) [1]: 3.0
- Safranin-O Stain (modified Mankin) [1]: 3.0
- Structure (modified Mankin) [1]: 4.0
- Tide Mark Integrity (modified Mankin) [1]: 0.0
- Total Mankin Score [1]: 10.0
- Cells (modified Mankin), MEAN (female, goat, in vivo, 14 days): 0.3
- Safranin-O Stain (modified Mankin), MEAN (female, goat, in vivo, 14 days): 3.3
- Structure (modified Mankin), MEAN (female, goat, in vivo, 14 days): 1.7
- Tide Mark Integrity (modified Mankin) (female, goat, in vivo, 14 days): 0.0
- Tide Mark Integrity (modified Mankin), MEAN (female, goat, in vivo, 14 days): 0.0
- Total Mankin Score, MEAN (female, goat, in vivo, 14 days): 5.3
- Cells (modified Mankin), MEAN (female, goat, in vivo, 28 days): 2.0
- Safranin-O Stain (modified Mankin) (female, goat, in vivo, 28 days): 4.0
- Safranin-O Stain (modified Mankin), MEAN (female, goat, in vivo, 28 days): 4.0
- Structure (modified Mankin), MEAN (female, goat, in vivo, 28 days): 3.0
- Tide Mark Integrity (modified Mankin) (female, goat, in vivo, 28 days): 0.0
- Tide Mark Integrity (modified Mankin), MEAN (female, goat, in vivo, 28 days): 0.0
- Total Mankin Score, MEAN (female, goat, in vivo, 28 days): 9.0
